The subject of the data set is CCRIS mutagenicity, Ames/micronucleus/aberration tests. Kind of data set: CCRIS mutagenicity studies. The note with it: Test System: AMES SALMONELLA TYPHIMURIUM, Method: STANDARD PLATE.

Active and inactive are the calls of the source. The rule behind the calls is not given here.

Take `Nc1ccc2[nH]c3ccccc3c2c1`: the mutagenic call is “inactive; negative” (Strain/Indicator: TA98, Metabolic Activation: NONE); “active; positive” (Strain/Indicator: TA98, Metabolic Activation: RAT LIVER S-9, AROCLOR 1254); “active; positive” (Strain/Indicator: TA98, Metabolic Activation: RAT, LIVER, S-9, PHENOBARBITAL); “inactive; negative” (Strain/Indicator: TA100, Metabolic Activation: NONE); “inactive; negative” (Strain/Indicator: TA100, Metabolic Activation: RAT LIVER S-9, AROCLOR 1254); “inactive; negative” (Strain/Indicator: TA100, Metabolic Activation: RAT, LIVER, S-9, PHENOBARBITAL). Further, the mutagenic call runs as follows: (Strain/Indicator: TA1537, Metabolic Activation: NONE) “inactive; negative”; (Strain/Indicator: TA1537, Metabolic Activation: RAT, LIVER, S-9, PHENOBARBITAL) “inactive; negative”; (Strain/Indicator: TA1538, Metabolic Activation: NONE) “inactive; negative”; (Strain/Indicator: TA1538, Metabolic Activation: RAT, LIVER, S-9, PHENOBARBITAL) “active; positive”; (Strain/Indicator: TA1977, Metabolic Activation: NONE) “inactive; negative”; (Strain/Indicator: TA1977, Metabolic Activation: RAT, LIVER, S-9, PHENOBARBITAL) “inactive; negative”.

The values above are taken from PubChem BioAssay AID1259407 (Chemical Carcinogenesis Research Information System (CCRIS), 2018).
